{"source": "patent US20170014455A1", "about": "“INDUCING BROWN FAT FATE AND FUNCTION” (The J. David Gladstone Instiutes, a testamentary trust …, priority 2014, published 2017)", "key": {"[1]": {"test_system": "3T3-L1 white pre-adipocytes", "test": "Differentiation and gene expression of 3T3-L1 white pre-adipocytes under brown adipogenic conditions", "type": "cell-based", "protocol": "(§1) C2C12, 3T3-L1 and C3H10T1/2 cells were purchased from ATCC. Primary brown pre-adipocytes were kindly donated by Prof. C. Ronald Kahn (Harvard University). […] Then cells were switched to 10% FBS DMEM containing 850 nM insulin and 1 nM T3 for another 4-6 days. To stimulate thermogenesis, cells were stimulated with 10 μM forskolin for 4 h.\n(§2) Total RNA from cell lines were purified using Qiagen kit, and total RNA from mouse tissues was extracted using Trizol. Complementary DNA was prepared from total RNA with the iScript DNA synthesis kit (Bio-Rad). Quantitative PCR reactions contained SYBR-Green fluorescent dye (ABI). RT-PCR was also used to confirm some gene expression. Relative mRNA expression was determined by the ΔΔ-Ct method with GAPDH as an endogenous control."}, "[2]": {"test_system": "primary brown pre-adipocytes (pre-BAT)", "test": "Differentiation of primary brown pre-adipocytes", "type": "cell-based", "protocol": "(§3) C2C12, 3T3-L1 and C3H10T1/2 cells were purchased from ATCC. Primary brown pre-adipocytes were kindly donated by Prof. C. Ronald Kahn (Harvard University). Primary myoblasts were purified from mouse limb muscles and cultured in growth medium (F10+20% FBS+5 ng/ml bFGF) in Matrigel-coated plates (Xiao et al., Cell Res 21, 350-364 (2011)). Adipocyte differentiation was induced by treating cells for 2 days in basal adipogenesis medium (AM) (850 nM insulin, 1 nM T3, 0.5 mM isobuylmethylxanthine, […] indomethacin, 5 μM dexamethasone in10% FBS DMEM). Then cells were switched to 10% FBS DMEM containing 850 nM insulin and 1 nM T3 for another 4-6 days. To stimulate thermogenesis, cells were stimulated with 10 μM forskolin for 4 h.\nas §2\nPrimary brown pre-adipocytes cells efficiently differentiated into brown adipose tissue in the conventional adipogenesis medium."}, "C2C12 myoblast cell line": {"test_system": "C2C12 myoblast cell line", "test": "Adipogenesis of C2C12 myoblasts, Oil-red-O staining of lipid droplets (high-throughput phenotypic screen and follow-up)", "type": "cell-based, mouse", "protocol": "as §3\nTo identify small molecules that mimic the BAT-inducing activity of Prdm16, a high-throughput phenotypic screen of 20,000 compounds was performed using the C2C12 myoblast cell line with lipid droplets stained by Oil-red-O (ORO) as readout (FIG. 1A). […] In the basal adipogenesis medium (AM), no adipocyte-like cells could be induced from C2C12 myoblasts."}, "[3]": {"test_system": "C3H10T1/2 mesenchymal cells", "test": "Adipogenic induction and gene expression in C3H10T1/2 mesenchymal cells", "type": "cell-based", "protocol": "as §1, §2"}, "C3H10T1/2 cells": {"test_system": "C3H10T1/2 cells", "test": "Ciclopirox and IOX2 gene expression in C3H10T1/2 cells", "type": "cell-based", "conditions": "0.1 μM to 50 μM", "protocol": "as §3, §2\nC3H10T1/2 cells were incubated in concentrations of ciclopirox and IOX2 that varied from 0.1 μM to 50 μM. Gene expression levels of genes correlated with the brown adipose tissue phenotype was measured using procedures described in Example 1."}, "C2C12 cells [4]": {"test_system": "C2C12 cells", "test": "Real-time PCR gene expression in C2C12 cells during adipogenesis", "type": "cell-based, mouse", "protocol": "as §3, §2"}, "[5]": {"test": "Oral bexarotene in chow-fed mice: body weight, indirect calorimetry, fat depots, tissue qPCR", "type": "in vivo, C57BL/6N mice", "conditions": "50 mg/kg/day oral, 4 weeks", "protocol": "as §2\nC57BL/6N mice were fed ad libitum a standard laboratory chow diet (LabDiet 5053, LabDiet, Purina Mills, Richmond, Ind.). Animals were housed under 12-hour light-dark cycles with controlled temperature (23±1° C.). […] All animal experiments were conducted in accordance with the institutional Guidelines for humane treatment of laboratory animals of HKU Animal Care and Use Committee.\nWhole-body oxygen consumption was measured using an open circuit indirect calorimetry system with automatic temperature and light controls (Columbus Instruments). Mice had access ad libitum to chow and water in respiration chambers, and data were recorded for a 48 h period […] acclimatized for 24 h."}, "[6]": {"test_system": "primary mouse embryonic fibroblast (MEF) cells", "test": "Adipogenesis and gene expression in primary mouse embryonic fibroblasts", "type": "cell-based"}, "primary myoblasts": {"test_system": "primary myoblasts", "test": "Bexarotene with PRDM16 overexpression in primary myoblasts", "type": "cell-based, mouse", "protocol": "as §3, §2"}, "[7]": {"test": "Bexarotene in high fat diet mice: body weight, fat weights, GTT, ITT", "type": "in vivo, C57BL/6J mice", "conditions": "50 mg/kg daily i.p., high fat diet 4 weeks", "protocol": "Male mice (8-week-old, C57BL/6J) were housed in metabolism cages and maintained on a 12 h light-dark cycle at 23° C. The mice were fed a high fat diet (HFD) (21.9 kJ/g, 60% of energy as fat, 20% of energy as protein, 20% of energy as carbohydrate; D12492; Research Diet, New Brunswick, N.J., USA) for four weeks.\nGlucose and insulin tolerance tests were performed on the mice at the end of the four week dosing period. Mice were fasted overnight and injected intraperitoneally (i.p.) with 20% glucose at a dose of 2 g/kg body weight for glucose tolerance tests (GTTs). For insulin tolerance tests (ITTs), mice were starved for 6 h and i.p. injected with 0.5 U/kg body weight of recombinant human insulin (Eli Lilly). Blood glucose was monitored from the tail vein blood using a glucometer (ACCU-CHEK Advantage; Roche Diagnostics China, Shanghai, China) at various time points. Mouse body weight, subcutaneous (inguinal fat; SubQ fat), and epididymal adipose tissue weight (epidi weight) were also determined at the end of the 4 week test."}, "[8]": {"test_system": "C2C12 cells over-expressing RXRα, RXRβ or RXRγ", "test": "Bexarotene in C2C12 cells overexpressing RXRα, RXRβ or RXRγ", "type": "cell-based, mouse", "protocol": "as §3\nMouse retinoid X receptor-alpha (RXRα) and retinoid X receptor-gamma (RXRγ) plasmids were from Dr. Ronald Evans (Salk Institute) and mouse RXRβ plasmid was purchased from Origene. These three RXR fragments were subcloned into pMXs vectors to generate a retrovirus construct (Yamanaka lab, Gladstone Institutes). Non-target shRNA(shNT), shRXRα, shRXRβ, and shRXRγ lentivirus constructs were purchased from Sigma-Aldrich. Retrovirus and lentivirus constructs were packaged in Plat E and 293T cells, respectively.\nas §2\nTo further characterize the role of retinoid receptors, the RXRα, RXRβ and RXRγ subtype receptors were overexpressed in C2C12 cells."}, "C2C12 cells [9]": {"test_system": "C2C12 cells", "conditions": "2-day treatment", "protocol": "Mouse genome-wide gene expression analyses were performed using Affymetrix Mouse Gene 1.0 ST Array. […] Microarray analyses were performed in duplicate from independent biologic samples, according to the standard Affymetrix Genechip protocol. Data were normalized and analyzed using Affymetrix Expression Console and Transcriptome Analysis Console (TAC) software. […] The differential expression gene list was further analyzed in DAVID GO functional annotation and GO-Elite (Zambon et al., Bioinformatics 28: 2209-2210 (2012))."}, "[10]": {"conditions": "brown adipogenic differentiation conditions"}}}
{"compound": "CN1c2ccc([N+](=O)[O-])cc2N=C(c2ccc(C(=O)O)cc2)c2cc3c(cc21)C(C)(C)CCC3(C)C", "note": "[HX531]", "values": [{"measurement": "white adipose tissue adipogenesis", "setting": "[1]", "result": "promoted"}, {"measurement": "Bex-induced BAT differentiation", "setting": "[2]; with bexarotene", "result": "reduced"}, {"measurement": "bexarotene-induced brown adipogenic induction", "setting": "C2C12 myoblast cell line; with bexarotene, first 2 days, 10 μM each", "result": "completely abolished"}, {"measurement": "white adipose tissue adipogenesis", "setting": "[3]", "result": "promoted"}]}
{"compound": "O=C(O)CNC(=O)c1c(O)c2ccccc2n(Cc2ccccc2)c1=O", "note": "[IOX2]", "values": [{"measurement": "expression of PPARγ and several brown adipocyte-specific genes", "setting": "C3H10T1/2 cells", "result": "significantly induced"}, {"measurement": "response of BAT-like adipocytes to forskolin (Ucp1, Pgc1α)", "setting": "C3H10T1/2 cells", "result": "readily responded to forskolin"}]}
{"compound": "C=C(c1ccc(C(=O)O)cc1)c1cc2c(cc1C)C(C)(C)CCC2(C)C", "note": "[bexarotene]", "values": [{"measurement": "levels of PPARγ, Fabp4, CD36 and RXR/PPARγ targets Pex11a, Angpt14, HK2", "setting": "C2C12 cells [4]; Day 2, qPCR confirmation", "result": "significantly increased"}, {"measurement": "expression of PPARγ, Prdm16 and Pgc1α", "setting": "C2C12 cells [4]; adipogenesis medium, qPCR Day 6", "result": "significantly induced"}, {"measurement": "response of induced BAT-like adipocytes to forskolin (Ucp1, Pgc1α)", "setting": "C2C12 cells [4]; forskolin stimulation 4 h", "result": "readily responded to forskolin"}, {"measurement": "Ucp1 expression in subcutaneous white adipose tissue (subWAT)", "setting": "[5]; qPCR", "result": "significantly induced although to a lesser extent"}, {"measurement": "thermogenic gene expression (Ucp1, Pgc1α) in brown adipose tissue", "setting": "[5]; qPCR", "result": "marked augmentation"}, {"measurement": "interscapular brown adipose tissue mass (absolute and portion of body weight)", "setting": "[5]; vs control", "result": "increased significantly"}, {"measurement": "lipid droplets in brown adipose tissue (H&E)", "setting": "[5]; vs control", "result": "similar, if not smaller"}, {"measurement": "white adipose tissue depots (subWAT, epiWAT) mass", "setting": "[5]; vs control", "result": "no statistically significant change"}, {"measurement": "body weight gain", "setting": "[5]; vs saline", "result": "smaller gain in body weight"}, {"measurement": "carbon dioxide release (VCO2)", "setting": "[5]; vs saline", "result": "released more CO2"}, {"measurement": "oxygen consumption (VO2)", "setting": "[5]; vs saline", "result": "consumed more oxygen"}, {"measurement": "physical activity", "setting": "[5]; vs saline", "result": "without changes in physical activity"}, {"measurement": "total energy expenditure (heat generation)", "setting": "[5]; vs saline", "result": "significantly more total energy was expended"}, {"measurement": "brown phenotype / browning", "setting": "[6]", "result": "induced a strong brown phenotype"}, {"measurement": "white adipogenic phenotype", "setting": "[6]", "result": "apparently suppressing"}, {"measurement": "Ucp1 expression", "setting": "[6]; even without forskolin stimulation", "result": "induced in a dose-dependent manner"}, {"measurement": "potentiation of Prdm16 overexpression-induced Ucp1 expression", "setting": "primary myoblasts; Prdm16 overexpression", "result": "more than fourfold"}, {"measurement": "lipid droplet size", "setting": "primary myoblasts; added to PRDM16 overexpression vs PRDM16 overexpression alone", "result": "much smaller lipid droplets"}, {"measurement": "glucose tolerance test", "setting": "[7]", "result": "improved glucose homeostasis"}, {"measurement": "insulin tolerance test", "setting": "[7]", "result": "responded to insulin more sensitively"}, {"measurement": "body weight", "setting": "[7]; vs control", "result": "lower body weight"}, {"measurement": "epididymal adipose tissue", "setting": "[7]; vs control", "result": "less epididymal adipose tissue"}, {"measurement": "subcutaneous (inguinal) fat", "setting": "[7]; vs control", "result": "less subcutaneous fat"}, {"measurement": "cells reprogrammed to brown adipose-like cells with multilocular lipid droplets", "setting": "[8]; RXRα or RXRγ overexpression", "result": "nearly all cells"}, {"measurement": "Prdm16 and Ucp1 expression at early stage", "setting": "[8]; RXRα-overexpressed C2C12 cells, before typical adipocytes appeared", "result": "induced Prdm16 expression and even more dramatically induced Ucp1 expression"}, {"measurement": "myogenic genes Myf5, MyoD, MyoG and MHCβ", "setting": "[8]; bexarotene/RXR reprogrammed cells", "result": "dramatically attenuated"}, {"measurement": "Ucp1 expression response to forskolin", "setting": "[8]; bexarotene/RXR-induced BAT-like cells", "result": "robustly responded"}, {"measurement": "response to forskolin stimulation", "setting": "[1]", "result": "more robust response"}, {"measurement": "BAT features (small lipid droplets, Ucp1 expression)", "setting": "[1]; [10]", "result": "induced"}, {"measurement": "white adipose tissue differentiation and PPARγ expression", "setting": "[1]; [10]", "result": "significantly suppressed"}, {"measurement": "expression of browning genes Fgf21, Pgc1α, Ppargc1a, Acsl1, Tbx15, Ptgs2, G0S2", "setting": "C2C12 cells [9]", "result": "increased expression"}, {"measurement": "white adipogenesis-associated genes Bmp4 and Egr2", "setting": "C2C12 cells [9]", "result": "repressed"}, {"measurement": "expression of PPARγ and BAT-associated genes incl. Prdm16 and Pgc1α", "setting": "[2]", "result": "higher levels of expression"}, {"measurement": "induction of Ucp1 and Pgc1α expression in response to forskolin", "setting": "[2]; differentiated BAT adipocytes", "result": "potentiated"}, {"measurement": "adipogenic reprogramming", "setting": "C2C12 myoblast cell line; added for 2 days in basal adipogenesis medium", "result": "dramatically initiated adipogenic reprogramming in C2C12 cells in a dose-dependent manner"}, {"measurement": "appearance of lipid droplets (Oil-red-O)", "setting": "C2C12 myoblast cell line; high-throughput screen of 20,000 compounds", "result": "led to the appearance of lipid droplets"}, {"measurement": "induction of Ucp1 and Pgc1α expression compared with cPGI2", "setting": "[3]", "result": "much greater than that of the COX-2 agonist cPGI2"}, {"measurement": "brown phenotype (thermogenic gene expression to forskolin stimulation)", "setting": "[3]; 2 days at the beginning of adipogenic induction", "result": "induced the brown phenotype"}, {"measurement": "small multilocular lipid droplets and BAT-specific genes Ucp1, Prdm16, PPARα, Pgc1α, Cox7a1, Cox8b", "setting": "[3]; RXRα or RXRγ overexpression, adipogenic induction", "result": "induced"}]}
{"compound": "Cc1cc(C2CCCCC2)n(O)c(=O)c1", "note": "[ciclopirox]", "values": [{"measurement": "expression of PPARγ and several brown adipocyte-specific genes", "setting": "C3H10T1/2 cells", "result": "significantly induced"}, {"measurement": "response of BAT-like adipocytes to forskolin (Ucp1, Pgc1α)", "setting": "C3H10T1/2 cells", "result": "readily responded to forskolin"}]}
